# Assay results published in article PMC7395068, “The evolution of strategies to minimise the risk of human drug-induced liver injury (DILI) in drug discovery and development” (Archives of Toxicology, 2020).
# Read-outs that look alike come from different tables or passages of the source.
# Columns and labels:
# PHH = details: cited from earlier work
# [1] = cited from earlier work
# HepaRG spheroids = experiment: Combined HCI (HCS) and cellular ATP 3D assay in HepaRG spheroids; details: for AC50 / minimal effective concentration: Homo sapiens
# [2] = plasma free fraction; cited from earlier work
# rBsep = details: In vitro Assay; ref Dawson 2012; cited from earlier work
# [3] = Plasma free fraction (fu) and unbound Cmax (Cmax,u); type: in vitro ADME, human; details: unbound plasma Cmax
# Method: The prediction of DILI severity was evaluated further using the 3D combined HCI assays using plasma-free fraction. The majority of fu values were obtained from literature, when unavailable in-house prediction was utilised. Unbound plasma Cmax concentrations (Cmax,u) were derived by multiplying total plasma Cmax with the corresponding free fraction (fu) for each compound.
# PHH spheroids = details: cited from earlier work
# [4] = read-out: Human plasma Cmax; total plasma Cmax.tot, median of 9 literature references; cited from earlier work
# [5] = tested on: THLE-Null and THLE-3A4 cells; details: In vitro Assay; ref Gustafsson 2014; cited from earlier work
# HepG2 cells = details: cited from earlier work
# hLiMTs [6] = experiment: Combined HCI (HCS) and cellular ATP 3D assay in hLiMTs; details: for AC50 / minimal effective concentration: Homo sapiens
# [7] = ref Chen 2011; cited from earlier work
# [8] = tested on: primary human hepatocytes, NIH3T3 fibroblasts, BSEP, CYP3A4; details: cited from earlier work
# [9] = tested on: HepG2 C3A spheroid, BSEP, Glu/Gal in HepG2 cells, bioactivation; details: cited from earlier work
# [10] = cited from earlier work; remark: listed apart in the source
# human hepatocytes = details: cited from earlier work
# [11] = tested on: HepG2 cells, primary human hepatocytes; details: In vitro Assay; ref Garside 2014; cited from earlier work
# hLiMTs [12] = details: cited from earlier work
# [13] = tested on: THLE or HepG2 cells, isolated mitochondria, BSEP; details: cited from earlier work
# [14] = In vitro Assay, ref Proctor 2017
# [15] = Microtissue model structural based (HCI), combined HCS and ATP, MEC < 25 × Cmax.tot cut-off
# [16] = In vitro Assay, ref Persson 2013
# [17] = In vitro Assay, ref Schadt 2015
# [18] = Modeled in vitro assays (cytotoxicity, mitochondrial dysfunction, BSEP), ref Aleo et al. 2019
compound,measurement,setting,value
"CCc1nn(CCCN2CCN(c3cccc(Cl)c3)CC2)c(=O)n1CCOc1ccccc1 [nefazodone, reference compound]","PHH/100xCmax, Proctor (2017)","PHH; 2D PHH, ATP, IC50 < 100 × Cmax.tot, ref Proctor et al. 2017",+VE (IC50 < 100 × Cmax.tot)
same,"PHH/100uM, Proctor (2017)","PHH; 2D PHH, ATP, IC50 threshold 100 µM, ref Proctor et al. 2017",+VE (IC50 threshold of 100 µM)
same,PHH ATP <100uM,PHH; [14],+VE (IC50 threshold of 100 µM)
same,Assigned DILI category,"[1]; Chen et al. 2016 or literature alignment, ref Chen et al. 2016",3
same,In vivo DILI,[1]; […],+VE
same,In vivo DILI,[1]; ref Aleo 2019,+VE
same,In vivo DILI,[1]; ref Dawson 2012,+VE
same,In vivo DILI,[1]; ref Garside 2014,+VE
same,In vivo DILI,[1]; ref Gustafsson 2014,+VE
same,In vivo DILI,[1]; ref Persson 2013,+VE
same,In vivo DILI,[1]; ref Proctor 2017,+VE
same,In vivo DILI,[1]; ref Schadt 2015,+VE
same,In vivo DILI,[1]; ref Vorrink 2018,+VE
same,In vivo DILI,[1]; ref Williams 2019,+VE
same,In vivo DILI,[1]; ref Xu 2008,+VE
same,HepaRG <25x Avg Cmax ATP,"HepaRG spheroids; HepaRG, ATP endpoint, cut-off <25x Avg Cmax",+ve
same,HepaRG <100x Avg Cmaxu ATP,"HepaRG spheroids; HepaRG, ATP endpoint, cut-off <100x Avg Cmaxu",-ve
same,HepaRG <25x Avg Cmax HCS,"HepaRG spheroids; HepaRG, HCS endpoints, cut-off <25x Avg Cmax",+ve
same,HepaRG <100x Avg Cmaxu HCS,"HepaRG spheroids; HepaRG, HCS endpoints, cut-off <100x Avg Cmaxu",-ve
same,HepaRG <25x Avg Cmax All,"HepaRG spheroids; HepaRG, all endpoints (ATP and HCS), cut-off <25x Avg Cmax",+ve
same,HepaRG Cmax max All,"HepaRG spheroids; HepaRG, all endpoints, Cmax max used",+ve
same,HepaRG Cmax min All,"HepaRG spheroids; HepaRG, all endpoints, Cmax min used",+ve
same,HepaRG <10 uM All,"HepaRG spheroids; HepaRG, all endpoints, cut-off <10 uM",+ve (<10 uM)
same,HepaRG <100x Avg Cmaxu All,"HepaRG spheroids; HepaRG, all endpoints, cut-off <100x Avg Cmaxu",-ve
same,AC50,"HepaRG spheroids; HepaRG, read-out: ATP endpoint AC50",19.4 µM
same,minimal effective concentration,"HepaRG spheroids; HepaRG, read-out: ATP endpoint MEC",11.6 µM
same,AC50,"HepaRG spheroids; HepaRG, read-out: HCS endpoint AC50",23.8 µM
same,minimal effective concentration,"HepaRG spheroids; HepaRG, read-out: HCS endpoint MEC",5.67 µM
same,DILI prediction HepaRG spheroids (HCS-MEC),HepaRG spheroids; [15],+VE (MEC < 25 × Cmax.tot cut-off)
same,fu,[2],0.010
same,Inhibition of rBsep cutoff<1& cmax u>.2,rBsep,+VE
same,Inhibition of rBsep cutoff<3,rBsep,+VE
same,"Human plasma Cmax,u",[3],0.043 µM
same,hLiMTs ATP <20 x Cmax,"PHH spheroids; In vitro Assay, ref Vorrink 2018",+VE (IC20 < 20 × Cmax.tot cut-off)
same,"DILI in vitro assay prediction, Vorrink (2018)","PHH spheroids; PHH spheroids, ATP, 14 days, IC20 < 20 × Cmax.tot, ref Vorrink et al. 2018",+VE (IC20 < 20 × Cmax.tot cut-off)
same,Cmax,[4],4.25 µM
same,THLE-Null,[5],+VE
same,THLE-Null/3A4,[5],+VE
same,Cluser analysis,HepG2 cells; [16],+VE
same,Structural based (HCI),HepG2 cells; [16],+VE
same,"DILI in vitro assay prediction, Persson (2013)","HepG2 cells; Structural based (HCI), HepG2, ref Persson et al. 2013",+VE
same,AC50,hLiMTs [6]; read-out: ATP endpoint AC50,12.1 µM
same,minimal effective concentration,hLiMTs [6]; read-out: ATP endpoint MEC,8.98 µM
same,AC50,hLiMTs [6]; read-out: HCS endpoint AC50,23.4 µM
same,minimal effective concentration,hLiMTs [6]; read-out: HCS endpoint MEC,13.8 µM
same,DILI prediction hLiMTs (HCS-MEC),hLiMTs [6]; [15],+VE (MEC < 25 × Cmax.tot cut-off)
same,hLiMTs <25x Avg Cmax ATP,"hLiMTs [6]; hLiMTs, ATP endpoint, cut-off <25x Avg Cmax",+ve
same,hLiMTs <100x Avg Cmaxu ATP,"hLiMTs [6]; hLiMTs, ATP endpoint, cut-off <100x Avg Cmaxu",-ve
same,hLiMTs <25x Avg Cmax HCS,"hLiMTs [6]; hLiMTs, HCS endpoints, cut-off <25x Avg Cmax",+ve
same,hLiMTs <100x Avg Cmaxu HCS,"hLiMTs [6]; hLiMTs, HCS endpoints, cut-off <100x Avg Cmaxu",-ve
same,hLiMTs <25x Avg Cmax All,"hLiMTs [6]; hLiMTs, all endpoints (ATP and HCS), cut-off <25x Avg Cmax",+ve
same,hLiMTs Cmax max All,"hLiMTs [6]; hLiMTs, all endpoints, Cmax max used",+ve
same,hLiMTs Cmax min All,"hLiMTs [6]; hLiMTs, all endpoints, Cmax min used",+ve
same,hLiMTs <10 uM All,"hLiMTs [6]; hLiMTs, all endpoints, cut-off <10 uM",+ve (<10 uM)
same,hLiMTs <100x Avg Cmaxu All,"hLiMTs [6]; hLiMTs, all endpoints, cut-off <100x Avg Cmaxu",-ve
same,DILI Score (FDA) (1-8),[7],8
same,"DILI in vitro assay prediction, Schadt (2015)","[8]; BSEP & Metabolism based, ref Schadt et al. 2015",+VE
same,Cellular toxicity (3T3 cells),[8]; [17],-VE
same,Combined Assay,[8]; [17],+VE
same,GSH adduct HML,[8]; [17],+VE
same,Hepatocyte cellular toxicity,[8]; [17],+VE
same,MitoTox 3T3,[8]; [17],+VE
same,TDI CYP3A4,[8]; [17],+VE
same,hBSEP inhibition,[8]; [17],+VE
same,"Bayesian Machine Learning DILI prediction, Williams (2019)","[9]; Bayesian modeling, ref Williams et al. 2019",+VE
same,Bayesian Machine Learning,"[9]; In vitro Assay, ref Williams 2019",+VE
same,DILI severity category (Chen et al. [2016]),"[10]; LTKB DILIrank category, ref Chen et al. 2016",Most
same,DILI severity category (Chen 2016),"[10]; human DILI classification, LTKB DILIrank, ref Chen et al. 2016",Most
same,DILI severity category,"[10]; human DILI severity, ref Chen et al.",Most
same,"DILI +VE (5-8), DILI -VE (-4)",[10]; ref Chen 2016,+VE
same,DILI severity category,[10]; ref Chen 2016,vMost-DILI-Concern
same,Structural based (HCI),"human hepatocytes; In vitro Assay, ref Xu 2008",+VE
same,"DILI in vitro assay prediction, Xu (2008)","human hepatocytes; Structural based (HCI), human hepatocytes, ref Xu et al. 2008",+VE
same,Cluster 1-6 +VE Assay,[11],+VE
same,hLiMTs ATP <100uM,hLiMTs [12]; [14],+VE (IC50 threshold of 100 µM)
same,"hLiMTs/100xCmax, Proctor (2017)","hLiMTs [12]; hLiMTs, ATP, IC50 < 100 × Cmax.tot, ref Proctor et al. 2017",+VE (IC50 < 100 × Cmax.tot)
same,"hLiMTs/100uM, Proctor (2017)","hLiMTs [12]; hLiMTs, ATP, IC50 threshold 100 µM, ref Proctor et al. 2017",+VE (IC50 threshold of 100 µM)
same,Partition Hybrid HRM Score,"[13]; In vitro Assay, ref Aleo 2019",+VE
same,Ro2 Hybrid HRM Score,"[13]; In vitro Assay, ref Aleo 2019",+VE
same,"Partition Hybrid HRM Score ≥4, Aleo (2019)",[13]; [18],+VE (Partition Hybrid HRM Score ≥4)
same,"Partition Hybrid HRM Score ≥8, Aleo (2019)",[13]; [18],+VE (Partition Hybrid HRM Score ≥8)
same,"Rule of Two hybrid HRM Score ≥3, Aleo (2019)",[13]; [18],+VE (Rule of Two hybrid HRM Score ≥3)
same,"Rule of Two hybrid HRM Score ≥8, Aleo (2019)",[13]; [18],+VE (Rule of Two hybrid HRM Score ≥8)
